# US6015809A (priority 1999, dated 2000)
# Tests used:
# Assay type in all cases: cell-based
# Aspergillus fumigatus = test: Antifungal activity, MIC microdilution; conditions: strain ATCC 26933; RPMI 1640, 35° C., 24-48 hours
# Method: (§1) Antifungal activity for the compounds of this invention was established by evaluating a representative compound of this invention (Compound I) against several strains of fungi. Briefly the following procedure was used to evaluate such activity. A 96 U-bottom microtiter plate was filled (50 μl/well) with RPMI 1640. The compounds to be evaluated were placed in appropriate wells, and serial diluted in successive wells to provide 11 dilutions. The concentrations ranged from 64 through 0.06 μg/ml. An adjusted inoculum of fungi (50 μl) was added to each well and the plates were incubated at 35° C. for 24-48 hours.
# Candida glabrata = test: Antifungal activity, MIC microdilution; conditions: strain ATCC 90030; RPMI 1640, 35° C., 24-48 hours
# Method: as §1
# Candida krussii = test: Antifungal activity, MIC microdilution; conditions: strain 94-2; RPMI 1640, 35° C., 24-48 hours
# Method: as §1
# Candida parapsilosis = test: Antifungal activity, MIC microdilution; conditions: RPMI 1640, 35° C., 24-48 hours
# Method: as §1
# Candida tropicalis = test: Antifungal activity, MIC microdilution; conditions: RPMI 1640, 35° C., 24-48 hours
# Method: as §1
# Cryptococcus neoformans = test: Antifungal activity, MIC microdilution; conditions: strain ATCC 90112; RPMI 1640, 35° C., 24-48 hours
# Method: as §1
# [1] = test system: Filobasidiella neoformans; test: Antifungal activity, MIC microdilution; conditions: strain ATCC 7472; RPMI 1640, 35° C., 24-48 hours
# Method: as §1
# Aspergillus flavus = test: Antifungal activity, MIC microdilution; conditions: strain ATCC 12963; RPMI 1640, 35° C., 24-48 hours
# Method: as §1, with “Briefly” for “Antifungal activity for the compounds of this invention was established by evaluating a representative compound of this invention (Compound I) against several strains of fungi. Briefly”
# Aspergillus niger = test: Antifungal activity, MIC microdilution; conditions: strain S-430; RPMI 1640, 35° C., 24-48 hours
# Method: as §1, with “Briefly” for “Antifungal activity for the compounds of this invention was established by evaluating a representative compound of this invention (Compound I) against several strains of fungi. Briefly”
# Candida albicans = test: Antifungal activity, MIC microdilution; conditions: RPMI 1640, 35° C., 24-48 hours
# Method: as §1, with “Briefly” for “Antifungal activity for the compounds of this invention was established by evaluating a representative compound of this invention (Compound I) against several strains of fungi. Briefly”
# Candida lusitaniae = test: Antifungal activity, MIC microdilution; conditions: strain 94-3; RPMI 1640, 35° C., 24-48 hours
# Method: as §1, with “Briefly” for “Antifungal activity for the compounds of this invention was established by evaluating a representative compound of this invention (Compound I) against several strains of fungi. Briefly”
# Candida pseudotropicalis = test: Antifungal activity, MIC microdilution; conditions: strain ATCC 28838; RPMI 1640, 35° C., 24-48 hours
# Method: as §1, with “Briefly” for “Antifungal activity for the compounds of this invention was established by evaluating a representative compound of this invention (Compound I) against several strains of fungi. Briefly”
# Candida rugosa = test: Antifungal activity, MIC microdilution; conditions: strain 94-10; RPMI 1640, 35° C., 24-48 hours
# Method: as §1, with “Briefly” for “Antifungal activity for the compounds of this invention was established by evaluating a representative compound of this invention (Compound I) against several strains of fungi. Briefly”
# Candida zeylanoided = test: Antifungal activity, MIC microdilution; conditions: strain 94-15; RPMI 1640, 35° C., 24-48 hours
# Method: as §1, with “Briefly” for “Antifungal activity for the compounds of this invention was established by evaluating a representative compound of this invention (Compound I) against several strains of fungi. Briefly”
# Saccharomyces cerevisiae = test: Antifungal activity, MIC microdilution; conditions: strain ATCC 2601; RPMI 1640, 35° C., 24-48 hours
# Method: as §1, with “Briefly” for “Antifungal activity for the compounds of this invention was established by evaluating a representative compound of this invention (Compound I) against several strains of fungi. Briefly”
# [2] = test system: A2780DDP (ovarian--resistant to cis-platin) tumor cells; test: Antineoplastic activity in vitro, tumor cell growth (sulforhrodamine B); conditions: 48 hours
# Description: (§2) Antineoplastic activity for the compounds of this invention was established by evaluating the antineoplastic activity of a representative compound of this invention (Compound I) against six tumor cell lines in vitro. Briefly, tumor cells from six cell lines were placed in wells of a 96 well microtiter plate. The following tumor cell lines were used: A2780S (ovarian), A2780DDP (ovarian--resistant to cis-platin), A431 (vulva epidermoid origin), SW620 (colon), SKBR3 (breast), and MDA-MB-435 (breast). The tumors cells were grown in the presence of serial dilutions of the compound to be evaluated for 48 hours, and cell growth determined using a colorimetric procedure (sulforhrodamine B). The inhibition of growth was calculated compared to the number of cells at the time of test compound addition. Results are expressed as an IC50 (μg/ml). […] In particular, the compounds of this invention are useful against solid tumors, including sarcomas and carcinomas; and more particularly against astrocytomas, prostate cancer, breast cancer, colon cancer, small cell lung cancer, and ovarian cancer; and adult T-cell leukemia/lymphoma.
# [3] = test system: A2780S (ovarian) tumor cells; test: as above; conditions: 48 hours
# Description: as §2
# [4] = test system: A431 (vulva epidermoid origin) tumor cells; test: as above; conditions: A431, 48 hours
# Description: as §2
# [5] = test system: MDA-MB-435 (breast) tumor cells; test: as above; conditions: MDA-MB-435, 48 hours
# Description: as §2
# [6] = test system: SKBR3 (breast) tumor cells; test: as above; conditions: SKBR3, 48 hours
# Description: as §2
# [7] = test system: SW620 (colon) tumor cells; test: as above; conditions: SW620, 48 hours
# Description: as §2
smiles,measurement,setting,value
"CO[C@H]1C[C@@H]2CC[C@@H](C)[C@@](O)(O2)[C@]2(O)C(=O)N3[C@@H](CCC[C@@H]32)C(=O)O[C@H]([C@H](C)C[C@@H]2CC[C@@H](O)[C@H](OC)C2)CC(=O)[C@H](C)/C=C(\C)[C@@H](O)[C@@H](OC)C(=O)[C@H](C)C[C@H](C)/C=C/C=C/C=C/1C [Compound I, (1S,2R,3R,6S,8S,9E,11E,13E,15S,17R,19R,20R,21E,23R,26S,29S,33R)-1,2,30-Trihydroxy-26-[(1R)-2-[(1S,3R,4R)4-hydroxy-3-methoxycyclohexyl]-1-methylethyl]-8,19-dimethoxy-3,9,15,17,21,23-hexamethyl-27,36-dioxa-35-azatetracyclo[27.4.2.1.[2,6].0[33,35]]hexatriaconta-9,11,13,21-tetraene-18,24,28,34-tetrone]",MIC,Aspergillus fumigatus,≥ 64 µg/mL
same,MIC,Candida glabrata,8 µg/mL
same,MIC,Candida krussii,≥ 64 µg/mL
same,MIC,Candida parapsilosis; strain 94-8,8 µg/mL
same,MIC,Candida parapsilosis; strain 94-9,8 µg/mL
same,MIC,Candida parapsilosis; strain ATCC 90018,8 µg/mL
same,MIC,Candida tropicalis; strain 94-13,16 µg/mL
same,MIC,Candida tropicalis; strain 94-14,8 µg/mL
same,MIC,Cryptococcus neoformans,8 µg/mL
same,MIC,[1],≥ 64 µg/mL
same,MIC,Aspergillus flavus,≥ 64 µg/mL
same,MIC,Aspergillus niger,≥ 64 µg/mL
same,MIC,Candida albicans; strain 94-1,16 µg/mL
same,MIC,Candida albicans; strain 1063,16 µg/mL
same,MIC,Candida albicans; strain 1117,32 µg/mL
same,MIC,Candida albicans; strain ATCC 90028,16 µg/mL
same,MIC,Candida albicans; strain C-83,≥ 64 µg/mL
same,MIC,Candida lusitaniae,4 µg/mL
same,MIC,Candida pseudotropicalis,4 µg/mL
same,MIC,Candida rugosa,16 µg/mL
same,MIC,Candida zeylanoided,8 µg/mL
same,MIC,Saccharomyces cerevisiae,8 µg/mL
same,IC50 (inhibition of growth),[2],6.51 µg/mL
same,IC50 (inhibition of growth),[3],8.756 µg/mL
same,IC50 (inhibition of growth),[4],20.46 µg/mL
same,IC50 (inhibition of growth),[5],27.28 µg/mL
same,IC50 (inhibition of growth),[6],7.029 µg/mL
same,IC50 (inhibition of growth),[7],24.84 µg/mL
